The structures appear in SMILES notation. Values after ≈ are worked out from the molar mass of the structure shown. A value given as a limit tells only on which side of the number the result lay.

A word on the solubility (kinetic): it is solubility judged after dilution from a stock solution rather than from solid.

The conditions of this data set: buffer; pH 7.4; 200.0 µM.
For the compound `CC1Cc2ccccc2N1CC(=O)NC(=O)NC(C)(C)C` (centres undefined), the solubility (kinetic) is 30.7 µg/mL (≈ 106 µM).
In the case of `Cc1ccc(NC(=O)COC(=O)c2cccnc2)cc1`, the solubility (kinetic) was greater than 40.5 µg/mL.
Next, `COc1ccc(-c2nc(C)sc2CC(=O)O)cc1OC`: 42 µg/mL (≈ 143 µM).
The result for `Cc1nc2ccccc2cc1C(=O)NCc1ccccc1` reads greater than 41.5 µg/mL; that for `N#CC1(NC(=O)COc2ccc(C(N)=O)cc2)CCCC1`, greater than 43.1 µg/mL.
`O=C1N(c2ccccc2)CCN1c1ccccc1` yielded a kinetic solubility of less than 0.3 µg/mL.
Next, `Cc1nc(-c2ccc(NC(=O)Cc3ccccc3)cc2)cs1`: 1 µg/mL (≈ 3.24 µM); `CC(Oc1ccccc1)C(=O)N1CCN(c2ncccn2)CC1` (centres undefined): greater than 46.9 µg/mL.
Compound `COc1ccccc1CNc1ccc(Br)cn1` yielded a kinetic solubility of 11.6 µg/mL (≈ 39.6 µM).
The result for `COc1ccc(S(=O)(=O)NCc2cccnc2)c2ccccc12` reads 37.2 µg/mL (≈ 113 µM); that for `CCCNC(=S)N1CCC(NC(=O)c2ccc(OC)cc2)CC1`, 20.3 µg/mL (≈ 60.5 µM); that for `CCS(=O)(=O)N1CCC(C(=O)O)CC1`, greater than 33.2 µg/mL.
The result for `O=C(CN1CCN(Cc2ccccc2)CC1)N/N=C/c1ccco1` reads greater than 49 µg/mL.
Regarding `O=C(Nc1cccc2ccccc12)NC1CCCCC1`, the kinetic solubility is less than 0.3 µg/mL.
`CCC(=O)c1c[nH]c(C(=O)N2CCOCC2)c1` registered a solubility (kinetic) of 33.7 µg/mL (≈ 143 µM).
Next, `Br.CC(=O)c1cccc(Nc2nc(-c3ccccc3)cs2)c1`: 2.1 µg/mL.
Next, `O=C(c1ccc(Cl)cc1Cl)N1CCN(c2ccccn2)CC1`: greater than 50.4 µg/mL; `COCc1cc(SC2CCCCC2)nc(C)n1`: 11.7 µg/mL (≈ 46.4 µM).
Next, `O=C(Nc1ccc(Cl)cc1N1CCOCC1)C1CC1`: greater than 42.1 µg/mL.
The compound `O=C(NCc1ccccc1)c1cc2ccc(O)cc2oc1=O` came in with a solubility (kinetic) of 6.3 µg/mL (≈ 21.3 µM).
Compound `Fc1ccc(N2CCN(Cc3cnc(Cl)s3)CC2)cc1` gave a kinetic solubility of 45.9 µg/mL (≈ 147 µM).
On to `Br.COc1ccc(C(=O)CN2Cc3ccccc3C2=N)cc1`, for which the solubility (kinetic) was greater than 54.2 µg/mL.
`CCC(C(=O)OC)n1cnc2c(oc3ccccc32)c1=O` (centres undefined): the kinetic solubility is greater than 42.9 µg/mL.
Next, `O=c1cc(CO)[nH]cc1OCc1ccccc1`: 34.4 µg/mL (≈ 149 µM).
The result for `O=C(NCc1csc(-c2cccs2)n1)c1ccsc1` reads 45.9 µg/mL (≈ 150 µM); that for `Cc1cccc(OCC(=O)NCCCNC(=O)c2ccco2)c1`, 46.8 µg/mL (≈ 148 µM); that for `CC1=C(C(=O)OC(C)(C)C)C(c2cccc3ccccc23)NC(=O)N1` (centres undefined), less than 0.4 µg/mL.
The result for `CC1=C(C(=O)OCC2CCCCC2)C(c2ccccc2F)NC(=O)N1` (centres undefined) reads 0.6 µg/mL (≈ 1.73 µM); that for `O=C(CCNC(=O)c1ccco1)Nc1ccc(F)c(Cl)c1`, 17.1 µg/mL (≈ 55 µM).
`O=C(NCCN1CCNCC1)c1ccccc1O` returned a kinetic solubility greater than 37.4 µg/mL.
The result for `O=C(Nc1ccc(S(=O)(=O)NC2=NCCCCC2)cc1)c1cccs1` reads greater than 56.6 µg/mL; that for `O=C(c1cn(Cc2ccccc2)c2ccccc12)N1CCCCC1`, 30.6 µg/mL (≈ 96.1 µM); that for `COc1cccc(Oc2nc(-c3ccccc3O)nc3ccccc23)c1`, less than 0.4 µg/mL.
The result for `COc1cc(/C=C2\NC(=O)NC2=O)cc(Br)c1OC` reads 10.5 µg/mL (≈ 32.1 µM); that for `S=c1[nH]c2ccccc2n2c(=S)[nH]nc12`, greater than 35.1 µg/mL.
Next, `CS(=O)(=O)N1CCCC(C(=O)c2cccc(Cl)c2)C1` (centres undefined): greater than 45.3 µg/mL.
`O=C(CNC(=O)c1ccc(Br)cc1)c1ccccc1`: the kinetic solubility is 1.3 µg/mL (≈ 4.09 µM).
The result for `COc1ccc(OCC(=O)Nc2nc3c(s2)CCCC3)cc1` reads 14.3 µg/mL (≈ 44.9 µM); that for `COc1ccc2cc(S(=O)(=O)N3CCCC(C)C3)ccc2c1` (centres undefined), less than 0.7 µg/mL.
For the compound `C[C@H](NC(=O)Cc1cccc2ccccc12)C(=O)N1CCOCC1`, the solubility (kinetic) was greater than 49 µg/mL.
Next, `O=C(O)/C=C/C(=O)Nc1ccc(N2CCOCC2)nc1N1CCOCC1`: greater than 54.4 µg/mL.
`CCOc1ccc(C(C)=O)cc1Cn1c(=O)oc2ccccc21` showed a solubility (kinetic) of 13.7 µg/mL (≈ 44 µM).
The result for `Cc1ccc(S(=O)(=O)N2CCN(c3ncnc4scc(-c5ccccc5)c34)CC2)cc1` reads 0.9 µg/mL (≈ 2 µM); that for `Cc1cccc(N2CC(O)(c3cccs3)[N+]3=C2CCCCC3)c1.[Br-]` (centres undefined), greater than 61.1 µg/mL; that for `COC(=O)C(Cc1c[nH]c2ccccc12)NC(=O)c1cccs1` (centres undefined), greater than 49.3 µg/mL.
Next, `COC(=O)CCC(=O)NNC(=O)c1ccc([N+](=O)[O-])cc1`: greater than 44.3 µg/mL; `CC(C)N1CN(c2ccccc2)C(=S)N(c2ccccc2)C1`: greater than 46.7 µg/mL; `NS(=O)(=O)c1ccc(CCNC(=O)c2ccc(Cl)c(S(=O)(=O)N3CCCCC3)c2)cc1`: 12.1 µg/mL (≈ 24.9 µM).
The result for `O=C(COC(=O)CNC(=O)c1ccccc1)NC(=O)NC1CCCCC1` reads greater than 54.2 µg/mL; that for `CN1CCN(S(=O)(=O)c2cccc(C(=O)N3CCN(c4ccccc4)CC3)c2)CC1`, 63.6 µg/mL (≈ 148 µM); that for `Cc1cc(OC(C)C(=O)NCC2CCCO2)cc(C)c1Cl` (centres undefined), 40.7 µg/mL (≈ 131 µM).
`COc1nc(C)nc(NC(=O)NS(=O)(=O)c2ccccc2Cl)n1` yielded a solubility (kinetic) greater than 53.7 µg/mL.
`Cc1cc(NC(=O)CSc2nc(C)c(C)c(=O)[nH]2)no1`: the solubility (kinetic) was greater than 44.1 µg/mL.
Next, `COc1ccc(C2SCC(=O)N2Cc2ccccc2)cc1` (centres undefined): 44.6 µg/mL (≈ 149 µM).
Compound `N#Cc1cnc(N)c(Br)c1` returned a kinetic solubility of 27.8 µg/mL (≈ 140 µM).
The result for `O=C(CN1CCN(C(=O)c2ccc(OCc3cn4ccccc4n3)cc2)CC1)Nc1cccc(F)c1` reads 8.6 µg/mL (≈ 17.6 µM).
The result for `O=C(CSc1nnc(-c2ccccc2F)o1)NC1CC1` reads greater than 44 µg/mL; that for `S=c1[nH]ccn1Cc1ccccc1`, greater than 28.5 µg/mL.
The result for `O=C(CSc1ncnc2sccc12)NC1CCS(=O)(=O)C1` (centres undefined) reads greater than 51.5 µg/mL.
In turn, `S=C(NCc1ccncc1)Nc1cc(Cl)cc(Cl)c1` returned a solubility (kinetic) of 5.6 µg/mL (≈ 17.9 µM).
In the case of `COC(=O)c1ccc(CNC(=O)[C@@H]2CCCN2S(=O)(=O)c2ccccc2F)cc1`, the solubility (kinetic) is 60.7 µg/mL (≈ 144 µM).
The result for `CC1(C)C2CCC1(C)C([NH2+]c1ccccc1)C2.[Cl-]` (centres undefined) reads less than 0.6 µg/mL; that for `CC(=O)c1ccc(Nc2c(C)n(C)n(-c3ccccc3)c2=O)cc1`, greater than 48.2 µg/mL; that for `N#Cc1c(N)n(-c2ccc(O)cc2)c2nc3ccccc3nc12`, 1.2 µg/mL (≈ 3.98 µM).
The result for `Cc1ccc(NC(=O)CCn2cc(C(F)(F)F)ccc2=O)cc1` reads 45.5 µg/mL (≈ 140 µM); that for `Cc1ccc(C(=O)N(C)CC(=O)Nc2cccc(C)c2C)o1`, greater than 45.1 µg/mL.
The result for `CCN1CCN(c2oc(-c3ccc([N+](=O)[O-])cc3)nc2C#N)CC1` reads 4 µg/mL (≈ 12.2 µM).
`CC(=O)c1ccc(NC(=O)Nc2cccc3ccccc23)cc1`: the kinetic solubility is 0.4 µg/mL (≈ 1.31 µM).
Next, `CSc1nc(-c2ccccc2)cc(C)c1C#N`: less than 0.3 µg/mL; `N#Cc1ccc(OCC(=O)NNC(=S)NC(=O)C2CC2)cc1`: greater than 47.8 µg/mL.
As for `COc1ccccc1N1CCN(Cc2cc3c(cc2O)OCO3)CC1`, the solubility (kinetic) is greater than 51.4 µg/mL.
The compound `CSc1nc2c(c(=O)[nH]1)C(c1cccc(Cl)c1)CC(=O)N2` (centres undefined) showed a solubility (kinetic) of 4.6 µg/mL (≈ 14.3 µM).
The result for `O=C1c2ccc([N+](=O)[O-])cc2C(=O)N1c1ccc(Cl)cn1` reads greater than 45.5 µg/mL.
Next, `CCOC(=O)C1Nc2ccc(C(=O)O)cc2C2C=CCC12` (centres undefined): greater than 43.1 µg/mL.

Source of the values: PubChem BioAssay AID1996.
